Values joined by “and” are separate entries in the source; they are usually repeats but may differ in a detail not shown here. Equal entries are not always repeated.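 Each compound was tested at five concentrations against cells in 96-well plates for 48 hours. GI50: concentration for 50% inhibition of growth. The concentration for full growth arrest is given as TGI.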
Experiments:
Test in all cases: NCI tumour cell line growth inhibition, 48 h
HCC-2998 colon = system: HCC-2998 colon
UACC-257 melanoma = system: UACC-257 melanoma
NCI-H23 lung = system: NCI-H23 lung
HL-60(TB) leukemia = system: HL-60(TB) leukemia
CCRF-CEM leukemia = system: CCRF-CEM leukemia
ACHN renal = system: ACHN renal
HOP-62 NSCLC = system: HOP-62 NSCLC
SF-268 CNS = system: SF-268 CNS
SF-295 CNS = system: SF-295 CNS
A549 NSCLC = system: A549 NSCLC

| Structure (SMILES) | GI50 (HCC-2998 colon) | TGI (HCC-2998 colon) | GI50 (UACC-257 melanoma) | TGI (UACC-257 melanoma) | GI50 (NCI-H23 lung) | TGI (NCI-H23 lung) | GI50 (HL-60(TB) leukemia) | TGI (HL-60(TB) leukemia) | GI50 (CCRF-CEM leukemia) | TGI (CCRF-CEM leukemia) | GI50 (ACHN renal) | TGI (ACHN renal) [µM] | GI50 (HOP-62 NSCLC) | TGI (HOP-62 NSCLC) | GI50 (SF-268 CNS) | TGI (SF-268 CNS) | GI50 (SF-295 CNS) | TGI (SF-295 CNS) | GI50 (A549 NSCLC) | TGI (A549 NSCLC) |
| --- | --- | --- | --- | --- | --- | --- | --- | --- | --- | --- | --- | --- | --- | --- | --- | --- | --- | --- | --- | --- |
| COc1ccc2c(c1)/C(=C\c1c(-c3cc(OC)ccc3OC)nc3sc(C)cn13)C(=O)N2C | 59.7 µM | > 100 µM | 23.5 µM | 45.9 µM | 38.5 µM | > 100 µM | 18300 nM | 41.4 µM | 12.1 µM | > 100 µM | 28.2 µM | > 100 | 26.3 µM | > 100 µM | 28600 nM | > 100 µM | 13.1 µM | 35.8 µM | 38600 nM | > 100 µM |
| O=C(/C=C/c1cc(Cl)cc(Cl)c1O)c1cccc(O)c1 |  | > 100 µM |  | > 100 µM |  | > 100 µM |  | 93.9 µM |  | > 100 µM |  | > 100 |  | > 100 µM |  | > 100 µM |  | 28.5 µM |  | > 100 µM |
| O=C(NCCCCCCCCCCCCNC(=O)c1cccc2ccccc12)c1cccc2ccccc12 |  | > 100 µM |  | > 100 µM |  | > 100 µM |  | > 80.1 µM |  | > 100 µM |  | > 100 |  | 30.4 µM |  | > 100 µM |  | > 83 µM |  | > 100 µM |
| CC(C)c1[nH]nc(C(N)=O)c1N=NN(C)C |  | > 100 µM |  | > 100 µM |  | > 100 µM |  | > 100 µM |  | > 100 µM |  | > 100 |  | > 100 µM |  | > 100 µM |  | > 100 µM |  | > 100 µM |
| COC[C@@H](N=C1NC(=O)/C(=C/c2ccc3ncccc3c2)S1)c1ccccc1 | 12.3 µM | > 25 µM | 8.09 µM | > 25 µM | 11.5 µM | > 25 µM | 6390 nM | 19.2 µM | 6.8 µM | > 22 µM | 9.24 µM | > 25 | 11.7 µM | > 25 µM | 11800 nM | > 25 µM | 8.71 µM | > 25 µM | 6720 nM | > 25 µM |
| COc1ccc2c(c1OC)C[C@@H]1c3c(cc4c(c3-2)OCO4)CCN1C |  | 40.3 µM |  | 61 µM |  | > 100 µM |  | 27.2 µM |  | 51.6 µM |  | > 100 |  | > 100 µM |  | > 100 µM |  | 31.3 µM |  | > 100 µM |
| CC(=O)Nc1ccc2c(c1)C(c1ccccc1Cl)=Nc1c(n[nH]c1C)N2 | 16.7 µM | > 25 µM | > 25 µM | > 25 µM | 12.4 µM | > 25 µM | 14800 nM | > 25 µM | 12.2 µM | > 25 µM | 6.19 µM | > 25 | 5.74 µM | > 25 µM | 3010 nM | > 21.4 µM | 8.22 µM | > 25 µM | 4460 nM | > 25 µM |
| COc1cc(/C=C\c2cc(OC)c(OC)c(OC)c2)cc(N/C=C\C(=O)c2ccc(OC(F)(F)F)cc2)c1OC | 3.71 µM | > 100 µM | 43.3 µM | > 100 µM | 4.38 µM | > 100 µM | 2800 nM | 8.08 µM | 3.55 µM | > 100 µM | 5.56 µM | > 100 | 7.85 µM | > 100 µM | 8900 nM | > 100 µM | 4.12 µM | 30.9 µM | 4540 nM | > 100 µM |
| Nc1nccc(-c2c(-c3ccc(F)cc3)ncn2C2CCNCC2)n1 | 9.58 µM and 3.89 µM | > 25 µM and 12.2 µM | 10.2 µM and 3.45 µM | > 25 µM and 17.6 µM | 9.71 µM and 4.41 µM | > 25 µM and 18.8 µM | > 25000 nM and 6470 nM | > 25 µM | 13.2 µM and 4.52 µM | > 25 µM | 7.61 µM and 1.41 µM | > 25 | 5.29 µM and 3.85 µM | > 25 µM | 5920 nM and 2760 nM | > 25 µM | > 12.4 µM and 5.75 µM | > 25 µM | 1970 nM and 1660 nM | > 25 µM |
| OCCN1CCN(CCCN2c3ccccc3Sc3ccc(Cl)cc32)CC1 | 1.5 µM | 2.98 µM | 1.66 µM | 3.36 µM | 3.83 µM | 18 µM | 2060 nM | 4.16 µM | 2.2 µM | 6.24 µM | 3.8 µM | 13.6 | 3.02 µM | 12.7 µM | 2790 nM | 10.7 µM | 1.75 µM | 3.65 µM | 3680 nM | 15.2 µM |
| Cc1nc(-n2nc(-c3ccccc3)cc2-c2ccccc2)sc1C(=O)/C=C/c1ccc(/C=C/C(=O)c2sc(-n3nc(-c4ccccc4)cc3-c3ccccc3)nc2C)cc1 |  | 39.3 µM |  | 45.6 µM |  | 35.3 µM |  | > 100 µM |  | 96.7 µM |  | 40.2 |  | 54.2 µM |  | 51.6 µM |  | 51.8 µM |  | > 100 µM |
| CN(c1ncccc1CNc1nc(Nc2ccc3c(c2)CC(=O)N3)ncc1C(F)(F)F)S(C)(=O)=O | 1.41 µM and 1.8 µM | 7.28 µM and 9.71 µM | 1.6 µM and 2.24 µM | 5.54 µM and 8.76 µM | 1.79 µM and 2.16 µM | 4.88 µM and 6.35 µM | 2020 nM and 1380 nM | 5.72 µM and 5.51 µM | 3 µM and 2.46 µM |  | 2.72 µM and 3.31 µM | > 100 | 2.58 µM and 2.59 µM | > 30.1 µM | 2330 nM and 2650 nM | 13 µM and > 10 µM | 2.2 µM and 2.55 µM | > 100 µM | 2560 nM and 2920 nM | 12.2 µM and > 10 µM |
| CC(C)(Br)C(=O)N1CCN(C(c2ccccc2)c2ccccc2)CC1 |  | > 100 µM |  | > 100 µM |  | > 100 µM |  | 41.9 µM |  | > 100 µM |  | > 100 |  | > 100 µM |  | > 100 µM |  | > 100 µM |  | > 100 µM |
| COc1cc2c(cc1OC)[C@@H](Nc1ccc(C#N)cc1)C1COC(=O)[C@@H]1C2c1cc(OC)c(O)c(OC)c1 (stereo partly drawn) | 0.665 µM and 2.72 µM |  |  | 95 µM and > 100 µM | 0.159 µM and 0.0337 µM | 1.47 µM and 0.257 µM |  | 0.0606 µM and 0.192 µM | 0.0111 µM and 0.0152 µM | 0.0709 µM and 0.451 µM |  | 1.01 | 0.0277 µM and 0.0929 µM | 0.325 µM and 0.492 µM | 342 nM and 663 nM |  |  | 2 µM and 3.21 µM | 147 nM and 100 nM | 7.31 µM and 4.95 µM |
| CN(CCN1C(=O)c2cc([N+](=O)[O-])cc3cc([N+](=O)[O-])cc(c23)C1=O)CCN1C(=O)c2cc([N+](=O)[O-])cc3cc([N+](=O)[O-])cc(c23)C1=O |  | 23.8 µM |  | 9.42 µM |  | 27.9 µM |  | 0.536 µM |  | 4.03 µM |  | > 100 |  | > 100 µM |  | > 100 µM |  | > 100 µM |  | > 100 µM |
| O=Nc1ccc(O)c(=O)cc1 | 3.35 µM | 13.5 µM | 2.26 µM | 7.86 µM | 3.04 µM | 12 µM | 547 nM | 2.59 µM | 0.264 µM | 1.19 µM | 0.906 µM | 2.63 | 7.45 µM | 23.2 µM | 3430 nM | 10.6 µM | 26.1 µM | 79.2 µM | 12300 nM | 68.9 µM |
| CCOC(=O)c1ccc(NC(=O)Nc2nncs2)cc1 | 0.571 µM | 8.24 µM | 1.43 µM | > 85.1 µM | 0.649 µM | 12.1 µM | 106 nM | 6.7 µM | 0.23 µM | > 52.7 µM | 1.24 µM | 23.9 | 0.237 µM | 15.6 µM | 952 nM | 22.9 µM | 0.262 µM | 0.988 µM | 410 nM | 26.1 µM |
| CCN1C(=S)N(c2ccccc2)C2NC(=S)N(/N=C/C=C/c3ccccc3OC)C21 (stereo not drawn) | 0.538 µM | > 100 µM | > 100 µM | > 100 µM | 0.658 µM | > 100 µM | 245 nM | 0.6 µM | 0.362 µM | > 100 µM | 0.556 µM | > 100 | 0.487 µM | > 100 µM | 706 nM | > 91 µM | 0.263 µM | > 100 µM | 607 nM | > 100 µM |
| CCC(C)CCOC(=O)c1ccc(N=Cc2ccc(C=Nc3ccc(C(=O)OCCC(C)CC)cc3)cc2)cc1 (stereo not drawn) |  | > 100 µM |  | > 100 µM |  | > 100 µM |  | > 100 µM |  | > 100 µM |  | > 100 |  | > 100 µM |  | > 100 µM |  | > 100 µM |  | > 100 µM |
| Cc1cc(NCCCCCCCCNc2cc(C)nc3cc(N)ccc23)c2ccc(N)cc2n1 |  | 38.8 µM |  | 35.5 µM |  | 52.8 µM |  | 4.88 µM |  | 30.8 µM |  | > 100 |  | 75.1 µM |  | > 100 µM |  | 42 µM |  | > 100 µM |
| NS(=O)(=O)c1ccc(Nc2cc(-c3cccc(O)c3)[nH]n2)cc1 | > 25 µM | > 25 µM | > 25 µM | > 25 µM | > 25 µM | > 25 µM | > 25000 nM | > 25 µM | 8.04 µM | > 25 µM | > 25 µM | > 25 | > 25 µM | > 25 µM | > 25000 nM | > 25 µM | > 25 µM | > 25 µM | > 25000 nM | > 25 µM |
| COC(=O)C(Cc1cc(OC)c(OC)c(OC)c1)C(=O)OC |  | > 320 µM |  | > 320 µM |  | > 320 µM |  | > 320 µM |  | > 320 µM |  | > 320 |  | > 320 µM |  | > 320 µM |  | > 320 µM |  | > 320 µM |
| CCN(Cc1ccc(C)cc1)c1ccc(CO)c(Cl)c1 | 10.4 µM | 22.5 µM | 0.134 µM | 0.339 µM | 9.95 µM | 25.3 µM | 5780 nM | 35.7 µM | 15.9 µM | 51.3 µM | 10.1 µM | 23.2 | 0.779 µM | 16.4 µM | 15000 nM | 30.3 µM | 1.01 µM | 15.8 µM | 1550 nM | 16.2 µM |

Source: PubChem BioAssay (NCI)
